Measured values reported in ChEMBL document CHEMBL6087415, “Discovery of new fungal jumonji H3K27 demethylase inhibitors for the treatment of Cryptococcus neoformans and Candida auris infections” (Eur J Med Chem, 2025).
Converted amounts (≈) assume the structure as drawn. One block for each compound: values may come before it. The source made the active and inactive calls. The calls are words filed in the database; no cut-off is given here.

How the values were obtained:
[1] = Hemolytic activity in rabbit erythrocytes assessed as hemolysis at 10 to 100 uM relative to control; type: toxicity, cell-based, Oryctolagus cuniculus, Erythrocyte; conditions: dose 10-100 µM, read-out: Activity
Cryptococcus neoformans [2] = assay: Antibiofilm activity against Cryptococcus neoformans H99 assessed as inhibition of biofilm formation at 1 microg/ml incubated for 24 hrs by XTT reduction assay; type: functional, organism-based; conditions: dose 1.0 µg/ml
[3] = Solubility of compound in MeOH/H2O at pH 7 by HPLC analysis; type: physicochemical
[Candida] auris [4] = Antibiofilm activity against Candida auris 0029 assessed as inhibition of biofilm formation upto […] microg/ml incubated for 24 hrs by XTT reduction assay; type: functional, organism-based; conditions: Candidozyma auris, dose <= 64.0 µg/ml
Cryptococcus neoformans [5] = assay: Antifungal activity against Cryptococcus neoformans H99 assessed as reduction in fungal growth incubated for 72 hrs in presence of 10 uM Fe2+; type: functional
Cryptococcus neoformans [6] = assay: Antibiofilm activity against Cryptococcus neoformans H99 assessed as inhibition of capsule formation at 1 microg/ml incubated for 48 hrs by laser confocal microscopic analysis; type: functional, organism-based; conditions: dose 1.0 µg/ml
[7] = Metabolic stability in mouse liver microsome assessed as half life; type: ADME; conditions: liver microsomes
Candida albicans = assay: Synergistic antifungal activity against Candida albicans assessed as inhibition of fungal growth incubated in presence of fluconazole; type: functional, organism-based
[8] = Cytotoxicity against HUVEC cells; type: toxicity, cell-based; conditions: human
[Candida] auris [9] = Antifungal activity against Candida auris ATCC 15448 assessed as reduction in fungal growth; type: functional; conditions: Candidozyma auris
[Candida] auris [10] = Antifungal activity against Candida auris 0029 assessed as reduction in fungal growth; type: functional; conditions: Candidozyma auris
[11] = Inhibition of Cryptococcus neoformans H99 JMJD3 by absorbance based analysis
Cryptococcus neoformans [12] = assay: Antifungal activity against Cryptococcus neoformans H99 assessed as reduction in fungal growth incubated for 72 hrs in presence of 80 uM Fe2+; type: functional
Cryptococcus neoformans [13] = assay: Antifungal activity against Cryptococcus neoformans H99 assessed as reduction in fungal growth incubated for 72 hrs in presence of 5 uM Fe2+; type: functional
[Candida] auris [14] = Synergistic antifungal activity against Candida auris 0029 assessed as inhibition of fungal growth incubated in presence of fluconazole; type: functional, organism-based; conditions: Candidozyma auris
[Candida] auris [15] = Antifungal activity against Candida auris 0029 assessed as inhibition of cell growth at 16 microg/ml measured for 72 hrs; type: functional; conditions: Candidozyma auris
[16] = Inhibition of Candida auris 0029 JMJD3 by absorbance based analysis; design: species or system Candidozyma auris
Cryptococcus neoformans [17] = assay: Antifungal activity against Cryptococcus neoformans H99 assessed as reduction in fungal growth incubated for 72 hrs in presence of 1 uM Fe2+; type: functional
[Candida] auris [18] = Antibiofilm activity against Candida auris 0029 assessed as inhibition of biofilm formation at 64 microg/ml incubated for 24 hrs by XTT reduction assay; type: functional; conditions: Candidozyma auris
Cryptococcus neoformans [19] = assay: Antifungal activity against Cryptococcus neoformans H99 assessed as reduction in fungal growth incubated for 72 hrs in presence of 20 uM Fe2+; type: functional
Cryptococcus neoformans [20] = assay: Antifungal activity against Cryptococcus neoformans H99 assessed as reduction in fungal growth; type: functional
Cryptococcus neoformans [21] = assay: Fungicidal activity against Cryptococcus neoformans H99; type: functional
[22] = Metabolic stability in mouse liver microsome assessed as clearance; type: ADME; conditions: liver microsomes, read-out: CLH
Cryptococcus neoformans [23] = assay: Antibiofilm activity against Cryptococcus neoformans H99 assessed as inhibition of biofilm formation upto […] microg/ml incubated for 24 hrs by XTT reduction assay; type: functional, organism-based; conditions: dose <= 64.0 µg/ml
Cryptococcus neoformans [24] = assay: Antifungal activity against Cryptococcus neoformans H99 assessed as inhibition of cell growth at 4 microg/ml measured for 72 hrs; type: functional, organism-based; conditions: dose 4.0 µg/ml
Cryptococcus neoformans [25] = assay: Antifungal activity against Cryptococcus neoformans H99 assessed as reduction in fungal growth incubated for 72 hrs in presence of 40 uM Fe2+; type: functional
[Candida] auris [26] = Fungicidal activity against Candida auris 0029; type: functional; conditions: Candidozyma auris
[Candida] auris [27] = Effect on sterol composition in Candida auris 0029 assessed as other sterols content at 1 microg/ml measured after 24 hrs by GC-MS analysis; type: functional, Candidozyma auris; conditions: dose 1 µg/ml
Cryptococcus neoformans [28] = assay: Antifungal activity against Cryptococcus neoformans H99 infected in ICR mouse assessed as reduction in fungal burden in brain at 2 to 5 mg/kg, ip administered for 5 days; type: functional, organism-based; conditions: dose 2-5 mg/kg, time 5.0 day
[Candida] auris [29] = Induction of morphological changes in Candida auris 0029 assessed as cell wall damage by TEM analysis; type: functional, organism-based; conditions: Candidozyma auris
[Candida] auris [30] = Antibiofilm activity against Candida auris 0029 assessed as inhibition of biofilm formation at 4 to 64 microg/ml incubated for 24 hrs by XTT reduction assay; type: functional, organism-based; conditions: Candidozyma auris, dose 4-64 µg/ml
Cryptococcus neoformans [31] = assay: Induction of morphological changes in Cryptococcus neoformans H99 assessed as sparse capsule at 1 to 4 microg/ml by TEM analysis; type: functional, organism-based; conditions: dose 1-4 µg/ml
[Candida] auris [32] = Effect on sterol composition in Candida auris 0029 assessed as ergosterol content at 1 microg/ml measured after 24 hrs by GC-MS analysis (reference value: 100 %); type: functional, Candidozyma auris; conditions: dose 1 µg/ml
Cryptococcus neoformans [33] = assay: Effect on sterol composition in Cryptococcus neoformans H99 assessed as ergosterol content at 1 microg/ml measured after 24 hrs by GC-MS analysis (reference value: 58.53%); type: functional; conditions: dose 1 µg/ml
Cryptococcus neoformans [34] = assay: Antibiofilm activity against Cryptococcus neoformans H99 assessed as appearance of blurred capsule at 4 microg/ml measured for 48 hrs by SEM analysis; type: functional, organism-based; conditions: dose 4.0 µg/ml
Cryptococcus neoformans [35] = assay: Effect on sterol composition in Cryptococcus neoformans H99 assessed as other sterols content at 1 microg/ml measured after 24 hrs by GC-MS analysis (reference value: 41.47%); type: functional; conditions: dose 1 µg/ml
Cryptococcus neoformans [36] = assay: Induction of morphological changes in Cryptococcus neoformans H99 assessed as damaged cell membrane at 1 to 4 microg/ml by TEM analysis; type: functional, organism-based; conditions: dose 1-4 µg/ml
[Candida] auris [37] = Antibiofilm activity against Candida auris 0029 assessed as appearance of surface collapse at 4 to 16 microg/ml measured for 48 hrs by SEM analysis; type: functional, organism-based; conditions: Candidozyma auris, dose 4-16 µg/ml
[Candida] auris [38] = Induction of morphological changes in Candida auris 0029 assessed as cell membrane damage by TEM analysis; type: functional, organism-based; conditions: Candidozyma auris
Cryptococcus neoformans [39] = assay: Antibiofilm activity against Cryptococcus neoformans H99 assessed as appearance of surface collapse at 4 to 16 microg/ml measured for 48 hrs by SEM analysis; type: functional, organism-based; conditions: dose 4-16 µg/ml
[Candida] auris [40] = Antifungal activity against Candida auris 0029 infected in ICR mouse assessed as reduction in fungal burden in kidney at 2 to 5 mg/kg, ip administered for 5 days; type: functional, organism-based; conditions: Candidozyma auris, dose 2-5 mg/kg, time 5.0 day

- solubility [3]: 0.54 µg/mL (≈ 1.75 µM)
- MIC (Cryptococcus neoformans [5]): 8 µg/mL
- half-life [7]: 34.3 min
- MIC80 ([Candida] auris [9]): 0.125 µg/mL (≈ 0.405 µM)
- MIC80 ([Candida] auris [10]): 2 µg/mL (≈ 6.48 µM)
- IC50 [11]: 168 nM
- MIC (Cryptococcus neoformans [12]): 64 µg/mL
- MIC (Cryptococcus neoformans [13]): 4 µg/mL
- IC50 [16]: 5 nM
- MIC (Cryptococcus neoformans [17]): 1 µg/mL
- MIC (Cryptococcus neoformans [19]): 8 µg/mL
- MIC80 (Cryptococcus neoformans [20]): 0.5 µg/mL (≈ 1.62 µM)
- CLint scaled [22]: 159 mL/min/kg
- MIC (Cryptococcus neoformans [25]): 64 µg/mL
Compound: Clc1ccc(N/N=C(\c2ccccc2)c2ccccn2)nc1
- hemolysis at 100 µM [1]: < 3%
- Activity (Cryptococcus neoformans [2]): inactive
- Activity ([Candida] auris [4]): Active
- Activity (Cryptococcus neoformans [6]): Active
- Activity (Candida albicans): inactive
- IC50 [8]: 79 nM
- Activity ([Candida] auris [14]): inactive
- inhibition at 16 µg/mL ([Candida] auris [15]): 100%
- inhibition at 64 µg/mL ([Candida] auris [18]): 100%
- MFC (Cryptococcus neoformans [21]): 16 µg/mL (≈ 51.8 µM)
- Activity (Cryptococcus neoformans [23]): Active
- Activity (Cryptococcus neoformans [24]): Active
- MFC ([Candida] auris [26]): 256 µg/mL (≈ 829 µM)

- MIC80 ([Candida] auris [9]): 32 µg/mL (≈ 110 µM)
- MIC80 ([Candida] auris [10]): 64 µg/mL (≈ 220 µM)
- MIC80 (Cryptococcus neoformans [20]): 32 µg/mL (≈ 110 µM)
Compound: Fc1ccc(N/N=C(/c2ccccc2)c2ccccn2)cc1

- MIC80 ([Candida] auris [9]): > 64 µg/mL
- MIC80 ([Candida] auris [10]): > 64 µg/mL
- MIC80 (Cryptococcus neoformans [20]): 64 µg/mL (≈ 198 µM)
Compound: O=c1n(-c2ccccn2)c2ccccc2n1-c1ccc(Cl)cn1

- MIC80 ([Candida] auris [9]): > 64 µg/mL
- MIC80 ([Candida] auris [10]): > 64 µg/mL
- MIC80 (Cryptococcus neoformans [20]): > 64 µg/mL
Compound: FC(F)(F)c1ccc(N/N=C(/c2ccccc2)c2ccccn2)cc1

- solubility [3]: 3.93 µg/mL (≈ 13.1 µM)
- MIC80 ([Candida] auris [9]): 0.125 µg/mL (≈ 0.416 µM)
- MIC80 ([Candida] auris [10]): 2 µg/mL (≈ 6.66 µM)
- MIC80 (Cryptococcus neoformans [20]): 0.5 µg/mL (≈ 1.66 µM)
Compound: N#Cc1ccc(NN=C(c2ccccn2)c2ccccn2)nc1

- solubility [3]: 79.2 µg/mL (≈ 259 µM)
- MIC (Cryptococcus neoformans [5]): 8 µg/mL
- half-life [7]: 50.6 min
- MIC80 ([Candida] auris [9]): 0.125 µg/mL (≈ 0.409 µM)
- MIC80 ([Candida] auris [10]): 2 µg/mL (≈ 6.55 µM)
- IC50 [11]: 134 nM
- MIC (Cryptococcus neoformans [12]): 32 µg/mL
- MIC (Cryptococcus neoformans [13]): 4 µg/mL
- IC50 [16]: 12 nM
- MIC (Cryptococcus neoformans [17]): 2 µg/mL
- MIC (Cryptococcus neoformans [19]): 16 µg/mL
- MIC80 (Cryptococcus neoformans [20]): 0.5 µg/mL (≈ 1.64 µM)
- CLint scaled [22]: 108 mL/min/kg
- MIC (Cryptococcus neoformans [25]): 16 µg/mL
Compound: COc1ccc(NN=C(c2ccccn2)c2ccccn2)nc1
- hemolysis at 100 µM [1]: < 3%
- Activity (Cryptococcus neoformans [2]): Active
- Activity ([Candida] auris [4]): Active
- Activity (Cryptococcus neoformans [6]): Active
- Activity (Candida albicans): inactive
- Activity ([Candida] auris [27]): 43.07%
- IC50 [8]: 246 nM
- Activity (Cryptococcus neoformans [28]): Active
- Activity ([Candida] auris [29]): Active
- Activity ([Candida] auris [30]): Active
- Activity ([Candida] auris [14]): inactive
- Activity (Cryptococcus neoformans [31]): Active
- Activity ([Candida] auris [32]): 56.93%
- inhibition at 16 µg/mL ([Candida] auris [15]): 100%
- Activity (Cryptococcus neoformans [33]): 43.82%
- Activity (Cryptococcus neoformans [34]): Active
- Activity (Cryptococcus neoformans [35]): 41.52%
- Activity (Cryptococcus neoformans [36]): Active
- Activity ([Candida] auris [37]): Active
- Activity ([Candida] auris [38]): Active
- MFC (Cryptococcus neoformans [21]): 8 µg/mL (≈ 26.2 µM)
- Activity (Cryptococcus neoformans [39]): Active
- Activity (Cryptococcus neoformans [23]): Active
- Activity (Cryptococcus neoformans [24]): Active
- Activity ([Candida] auris [40]): Active
- MFC ([Candida] auris [26]): 64 µg/mL (≈ 210 µM)

- MIC80 ([Candida] auris [9]): > 64 µg/mL
- MIC80 ([Candida] auris [10]): > 64 µg/mL
- MIC80 (Cryptococcus neoformans [20]): 32 µg/mL (≈ 93.5 µM)
Compound: Clc1ccc(N/N=C(\c2ccc(Cl)cc2)c2ccccn2)cc1

- MIC80 ([Candida] auris [9]): > 64 µg/mL
- MIC80 ([Candida] auris [10]): > 64 µg/mL
- MIC80 (Cryptococcus neoformans [20]): 16 µg/mL (≈ 46.7 µM)
Compound: FC(F)(F)c1ccc(NN=C(c2ccccn2)c2ccccn2)cc1

- MIC80 ([Candida] auris [9]): > 64 µg/mL
- MIC80 ([Candida] auris [10]): > 64 µg/mL
- MIC80 (Cryptococcus neoformans [20]): 64 µg/mL (≈ 189 µM)
Compound: S=c1n(-c2ccccn2)c2ccccc2n1-c1ccc(Cl)cn1

- MIC80 ([Candida] auris [9]): 0.5 µg/mL (≈ 1.62 µM)
- MIC80 ([Candida] auris [10]): 4 µg/mL (≈ 13 µM)
- MIC80 (Cryptococcus neoformans [20]): 1 µg/mL (≈ 3.24 µM)
Compound: Clc1cccnc1N/N=C(\c1ccccc1)c1ccccn1
